Test results: patent US10350315B2, “Quinoline-3-carboxamide compounds and their use in diagnosis” (Westfaelische Wihelms-Universitaet Muenster, priority 2014, dated 2019)
“Also recorded” adds a separate entry of the source.

How the values were obtained:
S100A9 [1] = molecular target: T1, S100A9 (Mus musculus, UniProt P31725); experiment: Irritant contact dermatitis (ICD) mouse model, SPECT/CT; type: in vivo, mice; conditions: 66 MBq per mouse i.v.
T1 construct: from tissue; host or cells: living mice (inflamed ear, joints) and explanted mouse heart, aorta and lungs
T1 sequence (P31725 2-113 limits assumed): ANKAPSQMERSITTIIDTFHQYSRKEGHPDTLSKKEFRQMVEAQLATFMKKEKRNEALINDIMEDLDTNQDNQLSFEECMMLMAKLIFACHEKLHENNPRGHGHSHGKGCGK
Protocol: FIG. 19: Accumulation of [^99mTc]FEB054 in the inflamed ear and muscle in a mouse model of contact dermatitis (ICD). The tracer was intravenously in a mouse model of contact dermatitis of the left ear in WT mice (=inflamed, right hand side) at a dose of 66 MBq per mouse and measured 0-60 min post injection.
Mice were injected and scanned under isoflurane/oxygen inhalation anaesthesia (1.4-1.8% isoflurane, 0.5 l O2/min). All animals were injected with a target dose of 2.5 MBq/g body weight) and a total injection volume ≤150 μl. […] Data analysis was performed by CT based definitions of regions-of-interest and quantitative mesurements are expressed as kBq/mL.
ICD was induced by the application of 20 μl 1% croton oil in olive oil-acetone (1:4) to the ventral surface of the left ear of mice for 24 h (n=5 per group), whereas the right ear served as a control. […] In the Cy7 channel the quantum yield is much lower compared to the Cy5.5 channel, which means that the recorded signal with Cy5.5-CES271 is higher than compared to […] (right image; FIG. 21). […] The labelling efficacy (dye/antibody ratio) was determined on the basis of ultraviolet-spectra of the purified dye-antibody compound using PBS as a reference buffer. […]

[2] = Human blood serum stability at 37 °C (gradient HPLC); type: in vitro ADME; conditions: freshly prepared human blood serum, over 120 min
Protocol: FIG. 17: Human serum blood stability of [^99mTc]FEB054. […] Blood serum stability was tested in freshly prepared human blood serum at 37° C. Samples were taken after 10, 20, 30, 60, 90 and 120 minutes and analysed using a gradient HPLC system. 5 MBq of [^99mTc]FEB054 in 20 μL PBS buffer was added to 200 μL of a freshly prepared human blood serum sample and incubated at 37° C. After 10, 20, 30, 60, 90 and 120 minutes, 20 μL were separated and diluted with 50 μL dichloromethane and 50 μL methanol. After centrifugation, 10 μL of the solution were analyzed via gradient-HPLC using a Knauer system with two Smartline 1000 pumps, Smartline UV detector 2500 (Herbert Knauer GmbH), a GabiStar γ-detector (Raytest lsotopenmessgeräte GmbH) and a reversed phase C18 column (Nucleosil 100-5 C-18 column 4.6 mm×250 mm). Eluent A: water (0.1% TFA). Eluent B: Methanol (0.1% TFA). […]
Blood serum stability was tested in freshly prepared human blood serum at 37° C. […] Samples were taken after 10, 20, 30, 60, 90 and 120 minutes and analysed using a gradient HPLC system. […] After centrifugation, 10 μl of the solution were analysed via gradient-HPLC using a Knauer system with two Smartline1000 pumps, Smartline UV-detector 2500 (Herbert Knauer GmbH), a GabiStar γ-detector (Raytest lsotopenmessgeräte GmbH) and a reverse phase […] column 4.6 mm×250 mm). […]

[3] = Biodistribution and elimination of [99mTc]FEB054 in healthy Balb/c mice (SPECT/CT); type: in vivo
Protocol: FIG. 18: Biodistribution (A) and elimination (B) of [^99mTc]FEB054 in healthy Balb/c mice. The tracer was intravenously injected at a dose of 62 MBq per mouse. The tracer accumulation and elimination was measured 0-90 min post injection.
Mice were injected and scanned under isoflurane/oxygen inhalation anaesthesia (1.4-1.8% isoflurane, 0.5 l O2/min). All animals were injected with a target dose of 2.5 MBq/g body weight) and a total injection volume ≤150 μl. For the image acquisition we used a NanoSPECT/CT-Plus preclinical camera (Mediso Medical Imaging Systems; Hungary), a 4-head gamma camera equipped with multi-pinhole collimators and a cone beam CT imaging system. In the shown studies we employed 9 pinholes/head with a diameter of 1.0 mm and a field of view of 30 mm×16 mm. 10 projections/scan and 60 seconds/projection resulting in a minimum of 100 kcounts/projection (in order to achieve high quality images with high statistics) were acquired. At the end of the SPECT measurement a CT scan was performed (same FOV as the SPECT scan) (55 kVp; 180 projections/rotation; 500 ms exposure time and 1 mm pitch with constant statistics). Data analysis was performed by CT based definitions of regions-of-interest and quantitative mesurements are expressed as kBq/mL.

S100A9 [4] = molecular target: T1, S100A9; experiment: Collagen induced arthritis mouse model, SPECT/CT; type: in vivo, DBA/1j mice; conditions: 55 MBq per mouse i.v.
Protocol: FIG. 20: Accumulation of [^99mTc]FEB054 in a mouse model of collagen induced arthritis. The tracer was intravenously injected at a dose of 55 MBq per mouse. […] The tracer distribution was measured in vivo 60 min post injection using SPECT/CT.
Induction and imaging of CIA: Arthritis was induced in DBA/1j mice by injection of bovine collagen type II. Bovine collagen type II (bCII, MD Biosciences) was dissolved in 0.05 M acetic acid at a concentration of 2 mg/ml. DBA/1j mice were injected subcutaneously at the tail base with 100 μg bCII emulsified in CFA (Difco) and boostered on day 21 with 100 μg bCII in IFA at the same location. Mice were regularly inspected from day 14 after disease induction and scored for swelling, erythema and deformation of each joint three times a week. Imaging was performed after arthritis was clinically detectable in the majority of treated animals at indicated time points after tracer application of either Cy5.5-CES271 or [99mTc]FEB054.
SPECT/CT imaging of inflamed joints was recorded 1 h after iv injection of [99mTc]FEB054 (55 MBq of [99mTc]FEB054 per mouse). Individual feet of the mice were analysed separately according to the histological score. […] Even single affected joints could be clearly identified.

fac-[^99mTc(CO)3(5-ethyl-4-hydroxy-1-methyl-N-{1-(1-methyl-1H-imidazol-2-yl)-2-[(1-methyl-1H-imidazol-2-yl)methyl]-5,8,11-trioxa-2-azatridecan-13-yl}-2-oxo-N-phenyl-1,2-dihydroquinoline-3-carboxamide)]^+ [[^99mTc]FEB054]
Tracer uptake in the inflamed ear compared to the healthy control ear (S100A9 [1]; 45 minutes post injection): higher tracer uptake
Uptake ratios inflamed ear versus blood and muscle (S100A9 [1]; dynamic imaging 0-60 min post injection): increasing uptake ratios
Human blood serum stability (decomposition) [2]: very good; also recorded: no decomposition
Accumulation of the tracer in the liver and intestines ([3]; 62 MBq per mouse i.v.): intensive accumulation
Time of hepato-biliary elimination ([3]; 62 MBq per mouse i.v.): ≤ 20 min
Route of elimination ([3]; 62 MBq per mouse i.v., 0-90 min post injection): predominant hepato-biliary elimination
Tracer availability in the blood ([3]; 62 MBq per mouse i.v., first 10 minutes): good tracer availability in the blood
Blood half-life ([3]; mouse, in vivo): suitable
Correlation of SPECT signal with clinical scoring (S100A9 [4]; 1 h after injection): excellent correlation
Tracer accumulation in inflamed joints of the hind limbs versus healthy control mouse (S100A9 [4]; 60 min post injection): tracer accumulation in the inflamed joints
Tracer accumulation in liver, intestines, kidneys and urinary bladder (S100A9 [4]; 60 min post injection): intensive tracer accumulation
